One experiment concerns GnRH. The settings on record: relative to native GnRH; cited from earlier work.
For experiment [1] the following is noted: repeated administration, receptor down-regulation; cited from earlier work.
For another experiment, the target named is T1, Human GnRH receptor (Homo sapiens, UniProt P30968).
T1 construct: expressed in transfected cells; host or cells: CHO (Chinese hamster ovary) cells, membrane fraction
T1 sequence (P30968 1-328): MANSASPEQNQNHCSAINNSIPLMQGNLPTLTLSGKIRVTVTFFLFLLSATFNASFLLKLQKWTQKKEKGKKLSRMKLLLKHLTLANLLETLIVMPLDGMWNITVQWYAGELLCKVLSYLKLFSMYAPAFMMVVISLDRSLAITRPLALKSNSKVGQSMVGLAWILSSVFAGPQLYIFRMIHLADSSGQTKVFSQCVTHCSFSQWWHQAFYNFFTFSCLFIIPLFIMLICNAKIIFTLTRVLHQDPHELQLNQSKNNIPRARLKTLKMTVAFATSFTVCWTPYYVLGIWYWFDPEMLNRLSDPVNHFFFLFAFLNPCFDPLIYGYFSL
Description: Human GnRH receptor binding inhibition assay (125I-leuprolerin, membrane fraction of CHO cells expressing human GnRH receptors). The settings on record: CHO cell membrane fraction with human GnRH receptors, 25° C., 60 minutes, concentration series, Hill plot, read-out: Binding inhibitory activity (IC50). The procedure: Human GnRH receptor binding inhibition assay
(A) Preparation of ^125 I-leuprolerin
Ten (10) μl of 3×10^-4 M aqueous leuprolerin solution and 10 μl of 0.01 mg/ml lactoperoxidase solution were taken in a tube, and 10 μl of Na^125 I solution (37 MBq) was added. After stirring, 10 μl of 0.001% H2 O2 was added and the reaction was conducted at room temperature for 20 minutes. The reaction was stopped by adding 700 μl of 0.05% TFA solution, and the reaction mixture was purified by reversed HPLC. The HPLC parameters are shown below. The retention time of ^125 I-leuprolerin was 26-27 minutes.
Column: TSKgel ODS-80™ CTR (4.6 mm×10 cm)
Eluent: Solvent A (0.05%TFA) Solvent B (40%CH3 CN-0.05%TFA)
Min. 0 (100% Solvent A)--Min. 3 (100% Solvent A)--Min. 7 (50% Solvent A+50% Solvent B)--Min. 40 (100% Solvent B) Elution temperature: room temperature Elution flow rate: 1 ml/min.
CHO cells (10^9 cells) with human GnRH receptors expressed were floated on phosphate-buffered saline containing EDTA (PBS-EDTA) and centrifuged at 100×g for 5 minutes. To the pellet obtained was added 10 ml of a cell homogenate buffer (10 mM NaHCO3, 5 mM EDTA, pH 7.5) and the mixture was homogenized using a Polytron homogenizer. The homogenate was centrifuged at 400×g for 15 minutes and the supernatant was taken in an ultracentrifuge tube and recentrifuged at 100,000×g for 1 hour. The membrane fraction thus obtained as a pellet was suspended in 2 ml of assay buffer and centrifuged at 100,000×g for 1 hour. The membrane fraction recovered was resuspended in 20 ml of assay buffer and the suspension was portioned, stored at -80° C., and thawed when needed.
(C) Determination of the ^125 I-leuprolerin binding inhibition rate
The membrane fraction prepared in Step (B) was diluted with assay buffer to 200 μg/ml and the dilution was portioned into tubes, 188 μl per tube. Then, 2 μl of 2 mM solution of the test compound in 60% DMSO and 10 μl of 38 nM ^125 I-leuprolerin solution in the same solvent were simultaneously added to the tubes. To determine the maximum binding, a test mixture of 2 μl of 60% DMSO and 10 μl of 38 nM ^125 I-leuprolerin solution in the same solvent was prepared. For the determination of nonspecific binding, a test mixture of 2 μl of 100 μM leuprolerin solution in 60% DMSO and 10 μl of 38 nM solution of ^125 I-leuprolerin in the same solvent was also prepared. The mixtures were respectively allowed to react at 25° C. for 60 minutes and the reaction product in each tube was filtered through a poly(ethylene imine)-treated Whatman glass filter (GF-F) under suction. The radioactivity of ^125 I-leuprolerin remaining on the filter was determined using a γ-counter.
Using the measured values, the following equation was calculated to find the binding inhibition rate for each test compound.
Binding inhibition (%)=(TB-SB)/(TB-NSB)×100
[SB: radioactivity with the compound added
TB: maximum bound radioactivity
NBS: nonspecifically bound radioactivity]
Using a concentration series of each test compound, the concentration of the compound which inhibited the binding by 50% (IC50) was calculated by Hill plot.

By IC50 is commonly meant the midpoint of a concentration-inhibition curve.

As for Leuprolerin acetate, the “times as active as native GnRH” value in the experiment on GnRH was 20-50 times. Further, the production of testosterone result in experiment [1] is on record as “cut down on the production of testosterone to the castrated level”. With `O=C(Nc1ccc(CN2C(=O)[C@H]3CCC[C@H]3N(C(=O)CN3C(=O)c4ccccc4C3=O)c3ccccc32)cc1)c1ccccc1` (relative stereo) [Example 7, (3aR*,10aS*)-9-(4-Benzamidobenzyl)-4-(phthalimidoacetyl)-2,3,3a,4,9,10a-hexahydrobenzo[b]cyclopenta[e]-[1,4]diazepin-10(1H)-one], the IC50 at Human GnRH receptor stood at 200 nM. On to `O=C(CCc1ccccc1)Nc1ccc(CN2C(=O)[C@H]3CCC[C@H]3N(C(=O)CN3C(=O)c4ccccc4C3=O)c3ccccc32)cc1` (relative stereo) [Example 17, (3aR*,10aS*)-9-[4-(3-Phenylpropionamido)benzyl]-4-(phthalimidoacetyl)-2,3,3a,4,9,10a-hexahydrobenzo[b]cyclopenta[e][1,4]diazepin-10(1H)-one], for which, on Human GnRH receptor, the IC50 was found to be 500 nM. The same measure, in the same setting: the value for `O=C(Nc1ccc(CN2C(=O)[C@H]3CCC[C@H]3N(C(=O)CN3C(=O)c4ccccc4C3=O)c3ccccc32)cc1)c1cccc(F)c1` (relative stereo) [Example 9, (3aR*,10aS*)-9-[4-(3-Fluorobenzamido)benzyl]-4-(phthalimidoacetyl)-2,3,3a,4,9,10a-hexahydrobenzo[b]cyclopenta[e][1,4]diazepin-10(1H)-one] was 200 nM; that for `O=C(Nc1ccc(CN2C(=O)[C@H]3CCC[C@H]3N(C(=O)CN3C(=O)c4ccccc4C3=O)c3ccccc32)cc1)c1ccc(F)cc1` (relative stereo) [Example 10, (3aR*,10aS*)-9-[4-(4-Fluorobenzamido)benzyl]-4-(phthalimidoacetyl)-2,3,3a,4,9,10a-hexahydrobenzo[b]cyclopenta[e][1,4]diazepin-10(1H)-one] was 200 nM; that for `O=C(Nc1ccc(CN2C(=O)[C@H]3CCC[C@H]3N(C(=O)CN3C(=O)C4=C(CCCC4)C3=O)c3ccccc32)cc1)OCc1ccccc1` (relative stereo) [Example 2, (3aR*,10aS*)-9-[4-(Benzyloxycarbonylamino)benzyl]-4-(2H-1,3-dioxo-1,3,4,5,6,7-hexahydroisoindole-2-acetyl)-2,3,3a,4,9,10a-hexahydrobenzo[b]cyclopenta[e][1,4]diazepin-10(1H)-one] was 70 nM.
